From patent publication US20110230471A1, “BENZONAPHTYRIDINE COMPOUNDS AS INHIBITORS OF AUTOTAXIN” (MERCK PATENT GESELLSCHAFT MIT BESCHRANKTER HAFTUNG, priority 2008, published 2011)

Molecular target: T1, recombinant autotaxin (Homo sapiens, UniProt Q13822)
T1 construct: made in house; host or cells: Hi5 insect cells (baculovirus)
Experiment: Autotaxin test (enzyme test), Amplex Red
Format: biochemical
Details: Autotaxin inhibition (enzyme test), TABLE 1 (A compounds); substrate LPC 75 μM
Experimental: The autotaxin activity is measured indirectly using Amplex Red reagent. Amplex Red is measured here as fluorogenic indicator for the H2O2 formed. In detail, autotaxin converts the substrate lysophosphatidylcholine (LPC) into phosphocholine and lysophosphatidylic acid (LPA). After this reaction, the phosphocholine is reacted with alkaline phosphatase to give inorganic phosphate and choline. In the next step, choline is oxidised by choline oxidase to give betaine, with formation of H2O2. H2O2 reacts with Amplex Red reagent in the presence of peroxidase (horseradish peroxidase) in a 1:1 stoichiometry and forms the highly fluorescent resorufin. The fluorescence is measured in a reaction-dependent kinetic mode in order that fluorescent signals from possible other fluorescent substances which are not involved in the reaction can be corrected out.
1.5 μl of a standard solution or of the test substances (substances with the name A(n))in individual concentrations dissolved in 20 mM Hepes pH 7.2 with a maximum of 7.7% of DMSO are pre-incubated together with 10 μl (16 ng) of highly purified recombinant autotaxin in a black microtitre plate provided with 384 wells at 22° C. for 30 min. The reaction is then initiated by addition of 5 μl of L-α-lysophosphatidylcholine (LPC), where the final concentration of LPC is 75 μM. The mixture is incubated at 37° C. for 90 min. After the incubation, Amplex Red reagent, peroxidase (horseradish peroxidase) and choline oxidase is added, and the fluorescence is immediately measured at 612 nm with excitation of 485 nm in a “Tecan Ultra multimode” reader. The activity of autotaxin is calculated indirectly via detection of the H2O2 formed.
• Microtitre plate: PS microplate, 384 wells, small volume, black Corning, Cat#3677 • Protein: recombinant autotaxin (Baculovirale Hi5 Expression) • Substrate: L-α-lysophosphatidylcholine (chicken egg)); Avanti Polar Lipids # 830071 P • Standard: C14 LPA, Avanti Polar Lipids, Cat# 857120P • Detection reagent: Amplex Red reagent; Invitrogen # A12222; dissolved in 1.923 ml of DMSO peroxidase type VI-A (horseradish) from Sigma # P6782; dissolved in 7.45 ml of test buffer, choline oxidase; Sigma # C5896; dissolved in 2.47 ml of test buffer • Detection reagent mix: 1:100 dilution of Amplex Red reagent in test buffer • Test buffer: 200 mM Tris HCl, Merck, Cat # 1.08219, pH 7.9, 0.1% of BSA, lipid-free, Roche Cat#775835

SMILES	IC50 [nM]
COc1ccc(Cl)cc1NC(=O)CN1CCc2nc3ccccc3c(C(=O)N3CCCN(Cc4ccccc4)CC3)c2C1 [Compound A26, 2-[10-(4-Benzyl-1,4-diazepan-1-carbonyl)-3,4-dihydro-1H-benzo[b][1,6]-naphthyridin-2-yl]-N-(5-chloro-2-methoxyphenyl)acetamide]	100 to 1000
COc1ccc(Cl)cc1NC(=O)CN1CCc2nc3ccccc3c(C(=O)N3CCNCC3)c2C1 [Compound A27, N-(5-chloro-2-methoxyphenyl)-2-[10-(piperazine-1-carbonyl)-3,4-dihydro-1H-benzo[b][1,6]naphthyridin-2-yl]acetamide]	100 to 1000
COc1ccc(Cl)cc1NC(=O)CN1CCc2nc3ccccc3c(C(=O)N3CCN(Cc4ccccc4)CC3)c2C1 [Compound A30, 2-[10-(4-Benzylpiperazine-1-carbonyl)-3,4-dihydro-1H-benzo[b][1,6]naphthyridin-2-yl]-N-(5-chloro-2-methoxyphenyl)acetamide]	100 to 1000
CN1CCN(C(=O)c2c3c(nc4ccccc24)CCN(C(=O)CCc2ccc(Cl)cc2Cl)C3)CC1 [Compound A31, 3-(2,4-dichlorophenyl)-1-[10-(4-methylpiperazine-1-carbonyl)-3,4-dihydro-1H-benzo[b][1,6]naphthyridin-2-yl]propan-1-one]	> 1000
CN1CCN(C(=O)c2c3c(nc4ccccc24)CCN(C(=O)CCc2ccc(Cl)cc2F)C3)CC1 [Compound A33, 3-(4-Chloro-2-fluorophenyl)-1-[10-(4-methylpiperazine-1-carbonyl)-3,4-dihydro-1H-benzo[b][1,6]naphthyridin-2-yl]propan-1-one]	> 1000
CCOc1ccc(Cl)cc1NC(=O)CN1CCc2nc3ccccc3c(C(=O)N3CCOCC3)c2C1 [Compound A41, N-(5-Chloro-2-ethoxyphenyl)-2-[10-(morpholine-4-carbonyl)-3,4-dihydro-1H-benzo[b][1,6]naphthyridin-2-yl]acetamide]	> 1000
O=C(CN1CCc2nc3ccccc3c(C(=O)N3CCOCC3)c2C1)Nc1cccc2ccoc12 [Compound A45, N-Benzofuran-7-yl-2-[10-(morpholine-4-carbonyl)-3,4-dihydro-1H-benzo-[b][1,6]naphthyridin-2-yl]acetamide]	> 1000
O=C(CN1CCc2nc3ccccc3c(C(=O)N3CCOCC3)c2C1)Nc1cc(Cl)cc2ccoc12 [Compound A48, N-(5-Chlorobenzofuran-7-yl)-2-[10-(morpholine-4-carbonyl)-3,4-dihydro-1H-benzo[b][1,6]naphthyridin-2-yl]acetamide]	100 to 1000
O=C(CN1CCc2nc3ccccc3c(C(=O)N3CCOCC3)c2C1)Nc1ccc(Cl)cc1O [Compound A53, N-(4-Chloro-2-hydroxyphenyl)-2-[10-(morpholine-4-carbonyl)-3,4-dihydro-1H-benzo[b][1,6]naphthyridin-2-yl]acetamide]	100 to 1000
CC(C)Oc1ccc(Cl)cc1NC(=O)CN1CCc2nc3ccccc3c(C(=O)N3CCN(CCO)CC3)c2C1 [Compound A60, N-(5-Chloro-2-isopropoxyphenyl)-2-{10-[4-(2-hydroxyethyl)piperazine-1-carbonyl]-3,4-dihydro-1H-benzo[b][1,6]naphthyridin-2-yl}acetamide]	> 1000
O=C(CN1CCc2nc3ccccc3c(C(=O)N3CCN(CCO)CC3)c2C1)Nc1ccc(N2CCCC2=O)c(Cl)c1 [Compound A64, N-[3-Chloro-4-(2-oxopyrrolidin-1-yl)phenyl]-2-{10-[4-(2-hydroxyethyl)-piperazine-1-carbonyl]-3,4-dihydro-1H-benzo[b][1,6]naphthyridin-2-yl}-acetamide]	> 1000
O=C(CN1CCc2nc3ccccc3c(C(=O)N3CCN(CCO)CC3)c2C1)Nc1ccc(N2CCOCC2=O)c(Cl)c1 [Compound A65, N-[3-Chloro-4-(3-oxomorpholin-4-yl)phenyl]-2-{10-[4-(2-hydroxyethyl)-piperazine-1-carbonyl]-3,4-dihydro-1H-benzo[b][1,6]naphthyridin-2-yl}-acetamide]	> 1000
COc1ccc(Cl)cc1NC(=O)CN1CCc2nc3ccccc3c(C(=O)N3CCN(CCN4CCCCC4)CC3)c2C1 [Compound A66, N-(5-Chloro-2-methoxyphenyl)-2-{10-[4-(2-piperidin-1-ylethyl)piperazine-1-carbonyl]-3,4-dihydro-1H-benzo[b][1,6]naphthyridin-2-yl}acetamide]	< 100
COc1ccc(Cl)cc1NC(=O)CN1CCc2nc3ccccc3c(C(=O)N3CCN(CCN(C)C)CC3)c2C1 [Compound A67, N-(5-Chloro-2-methoxyphenyl)-2-{10-[4-(2-dimethylaminoethyl)piperazine-1-carbonyl]-3,4-dihydro-1H-benzo[b][1,6]naphthyridin-2-yl}acetamide]	< 100
Cc1ccc(NC(=O)CN2CCc3nc4ccccc4c(C(=O)N4CCN(CCO)CC4)c3C2)cc1Cl [Compound A73, N-(3-Chloro-4-methylphenyl)-2-{10-[4-(2-hydroxyethyl)piperazine-1-carbonyl]-3,4-dihydro-1H-benzo[b][1,6]naphthyridin-2-yl}acetamide]	> 1000

Next, values leading:

IC50 [nM]	SMILES
100 to 1000	COc1ccc(Cl)cc1NC(=O)CN1CCc2nc3ccccc3c(C(=O)N3CCN(C4CCCC4)CC3)c2C1 [Compound A28, N-(5-Chloro-2-methoxyphenyl)-2-[10-(4-cyclopentylpiperazine-1-carbonyl)-3,4-dihydro-1H-benzo[b][1,6]naphthyridin-2-yl]acetamide]
< 100	CCCN1CCN(C(=O)c2c3c(nc4ccccc24)CCN(CC(=O)Nc2cc(Cl)ccc2OC)C3)CC1 [Compound A29, N-(5-Chloro-2-methoxyphenyl)-2-[10-(4-propylpiperazine-1-carbonyl)-3,4-dihydro-1H-benzo[b][1,6]naphthyridin-2-yl]acetamide]
100 to 1000	COc1ccc(Cl)cc1NC(=O)CN1CCc2nc3c(Br)cccc3c(C(=O)N3CCOCC3)c2C1 [Compound A40, 2-[6-Bromo-10-(morpholine-4-carbonyl)-3,4-dihydro-1H-benzo[b][1,6]naphthyridin-2-yl]-N-(5-chloro-2-methoxyphenyl)acetamide]
100 to 1000	COc1ccc(Cl)cc1NC(=O)CN1CCc2nc3cc(Br)ccc3c(C(=O)N3CCOCC3)c2C1 [Compound A42, 2-[7-Bromo-10-(morpholine-4-carbonyl)-3,4-dihydro-1H-benzo[b][1,6]-naphthyridin-2-yl]-N-(5-chloro-2-methoxyphenyl)acetamide]
100 to 1000	O=C(CN1CCc2nc3ccccc3c(C(=O)N3CCOCC3)c2C1)Nc1cc(Br)cc2ccoc12 [Compound A43, N-(5-Bromobenzofuran-7-yl)-2-[10-(morpholine-4-carbonyl)-3,4-dihydro-1H-benzo[b][1,6]naphthyridin-2-yl]acetamide]
> 1000	CCOc1ncc(Cl)cc1NC(=O)CN1CCc2nc3ccccc3c(C(=O)N3CCOCC3)c2C1 [Compound A52, N-(5-Chloro-2-ethoxypyridin-3-yl)-2-[10-(morpholine-4-carbonyl)-3,4-dihydro-1H-benzo[b][1,6]naphthyridin-2-yl]acetamide]
100 to 1000	O=C(CN1CCc2nc3ccccc3c(C(=O)N3CCOCC3)c2C1)Nc1cc(Cl)ccc1OCCO [Compound A54, N-[5-Chloro-2-(2-hydroxyethoxy)phenyl]-2-[10-(morpholine-4-carbonyl)-3,4-dihydro-1H-benzo[b][1,6]naphthyridin-2-yl]acetamide]
100 to 1000	O=C(CN1CCc2nc3ccccc3c(C(=O)N3CCN(CCO)CC3)c2C1)Nc1cc(Cl)ccc1OCCO [Compound A61, N-[5-Chloro-2-(2-hydroxyethoxy)phenyl]-2-{10-[4-(2-hydroxyethyl)-piperazine-1-carbonyl]-3,4-dihydro-1H-benzo[b][1,6]naphthyridin-2-yl}-acetamide]
< 100	COc1ccc(Cl)cc1NC(=O)CN1CCc2nc3ccccc3c(C(=O)N3CCN(CCN4CCOCC4)CC3)c2C1 [Compound A68, N-(5-Chloro-2-methoxyphenyl)-2-{10-[4-(2-morpholin-4-ylethyl)piperazine-1-carbonyl]-3,4-dihydro-1H-benzo[b][1,6]naphthyridin-2-yl}acetamide]
< 100	COc1ccc(Br)cc1NC(=O)CN1CCc2nc3ccccc3c(C(=O)N3CCN(CCO)CC3)c2C1 [Compound A69, N-(5-Bromo-2-methoxyphenyl)-2-{10-[4-(2-hydroxyethyl)piperazine-1-carbonyl]-3,4-dihydro-1H-benzo[b][1,6]naphthyridin-2-yl}acetamide]
